Columns and labels:
Assay in all cases: relative viability (nuclei count vs DMSO), 5 days (fraction); higher = more cells survive
NCI-H522 = test system: NCI-H522
Outline: (§1)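 Five library-drug doses in √10 steps were combined with a fixed anchor-drug dose, or a single drug was given alone, by pin tool to lung cancer cell lines in 1536-well plates the day after seeding. Nuclei were stained and counted after 5 days. Relative viability is the nuclei count in treated wells over that in vehicle wells, taken as the median of duplicate plates.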

ChaGo-K-1 = test system: ChaGo-K-1
Outline: as §1

SK-MES-1 = test system: SK-MES-1
Outline: as §1

A549 = test system: A549
Outline: as §1

NCI-H1651 = test system: NCI-H1651
Outline: as §1

NCI-H1623 = test system: NCI-H1623
Outline: as §1

## O=C(O)c1ccc(-c2c[nH]c3ncc(-c4ccccc4)cc23)cc1C1CCCC1 + N=C(N)NC(=N)NCCc1ccccc1 [Phenformin] (partner 250 µM)
NCI-H522; first compound 0.04 µM
  relative viability: 0.686
NCI-H522; first compound 0.1265 µM
  relative viability: 0.724
NCI-H522; first compound 0.4 µM
  relative viability: 0.549
NCI-H522; first compound 1.265 µM
  relative viability: 0.65
ChaGo-K-1; first compound 0.04 µM
  relative viability: 0.477
ChaGo-K-1; first compound 0.1265 µM
  relative viability: 0.541
ChaGo-K-1; first compound 0.4 µM
  relative viability: 0.452
ChaGo-K-1; first compound 1.265 µM
  relative viability: 0.507
SK-MES-1; first compound 0.04 µM
  relative viability: 0.683
SK-MES-1; first compound 0.1265 µM
  relative viability: 0.687
SK-MES-1; first compound 0.4 µM
  relative viability: 0.637
SK-MES-1; first compound 1.265 µM
  relative viability: 0.447
A549; first compound 0.04 µM
  relative viability: 0.168
A549; first compound 0.1265 µM
  relative viability: 0.197
A549; first compound 0.4 µM
  relative viability: 0.187
A549; first compound 1.265 µM
  relative viability: 0.0803
NCI-H1651; first compound 0.04 µM
  relative viability: 0.349
NCI-H1651; first compound 0.1265 µM
  relative viability: 0.328
NCI-H1651; first compound 0.4 µM
  relative viability: 0.278
NCI-H1651; first compound 1.265 µM
  relative viability: 0.189
NCI-H1623; first compound 0.04 µM
  relative viability: 0.618
NCI-H1623; first compound 0.1265 µM
  relative viability: 0.575
NCI-H1623; first compound 0.4 µM
  relative viability: 0.615
NCI-H1623; first compound 1.265 µM
  relative viability: 0.564

## CC1(C)CCC(c2ccc(Cl)cc2)=C(CN2CCN(c3ccc(C(=O)NS(=O)(=O)c4ccc(N[C@H](CCN5CCOCC5)CSc5ccccc5)c(S(=O)(=O)C(F)(F)F)c4)cc3)CC2)C1 [Navitoclax] + Cc1nc(Nc2ncc(C(=O)Nc3c(C)cccc3Cl)s2)cc(N2CCN(CCO)CC2)n1 [Dasatinib] (partner 0.075 µM)
NCI-H522; first compound 0.005 µM
  relative viability: 0.685
NCI-H522; first compound 0.01581 µM
  relative viability: 1.02
NCI-H522; first compound 0.05 µM
  relative viability: 1.17
NCI-H522; first compound 0.1581 µM
  relative viability: 1.06
NCI-H522; first compound 0.5 µM
  relative viability: 0.816
ChaGo-K-1; first compound 0.005 µM
  relative viability: 0.479
ChaGo-K-1; first compound 0.01581 µM
  relative viability: 0.627
ChaGo-K-1; first compound 0.05 µM
  relative viability: 0.322
ChaGo-K-1; first compound 0.1581 µM
  relative viability: 0.639
ChaGo-K-1; first compound 0.5 µM
  relative viability: 0.666
SK-MES-1; first compound 0.005 µM
  relative viability: 0.324
SK-MES-1; first compound 0.01581 µM
  relative viability: 0.466
SK-MES-1; first compound 0.05 µM
  relative viability: 0.395
SK-MES-1; first compound 0.1581 µM
  relative viability: 0.393
SK-MES-1; first compound 0.5 µM
  relative viability: 0.43
NCI-H1651; first compound 0.005 µM
  relative viability: 0.37
NCI-H1651; first compound 0.01581 µM
  relative viability: 0.41
NCI-H1651; first compound 0.05 µM
  relative viability: 0.308
NCI-H1651; first compound 0.1581 µM
  relative viability: 0.455
NCI-H1651; first compound 0.5 µM
  relative viability: 0.456
NCI-H1623; first compound 0.005 µM
  relative viability: 0.546
NCI-H1623; first compound 0.01581 µM
  relative viability: 0.578
NCI-H1623; first compound 0.05 µM
  relative viability: 0.518
NCI-H1623; first compound 0.1581 µM
  relative viability: 0.539
NCI-H1623; first compound 0.5 µM
  relative viability: 0.618
